One assay concerns HCT116-WT cells. The experiment in a line: Inhibitory activity against cell proliferation (CellTiter Glo, 6 days), HCT116-WT. The settings on record: 144 h, HCT116-WT cells, 6 days, CellTiter Glo; read-out: HCT116-WT IC50. Format: cell-based. The gist of the method: (§1)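 HCT116 wild-type or MTAP-knockout cells (250/well, McCoy's 5A + 10% FBS) treated after overnight culture with 8-point 4-fold dilutions from 10000 nM for 6 days at 37 °C. Viability read by CellTiter Glo luminescence on day 7; IC50 calculated against DMSO controls.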
Background: ATP-based viability assays read luminescence as a measure of living cells.

The next assay concerns HCT116 MTAP KO cells. The experiment in a line: Inhibitory activity against cell proliferation (CellTiter Glo, 6 days), HCT116 MTAP KO. Format: cell-based. The following applies: for IC50: Homo sapiens, HCT-116, 144 h, HCT116 MTAP KO cells, 6 days, CellTiter Glo, read-out: HCT116 MTAP KO IC50; for Selectivity HCT 116-WT/ HCT116 MTAP KO: ratio of IC50 HCT116-WT / HCT116 MTAP KO. In short, it runs like this: as §1

The target in another assay is PRMT5-MTA (Homo sapiens, UniProt O14744). The experiment in a line: Enzymatic inhibitory activity against PRMT5-MTA (AlphaScreen). Format: biochemical. In short, it runs like this:
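PRMT5/[…] (1 nM) was preincubated for 30 min at room temperature with 1 µM […] and 2.5 µM SAM, then exposed to compound (10-point, 3-fold from 1000 nM) for 15 min at 23 °C. Histone H4 substrate (5 nM) was added and reacted for 45 min at 23 °C. Symmetric dimethyl-R3 H4 was detected by AlphaScreen and IC50 calculated.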
In general terms: Alpha assays give light when donor and acceptor beads are brought close together.

Read-outs that look alike come from different tables or passages of the source.

For orientation: IC50 means the concentration needed to halve the response being measured.

Sequence of PRMT5-MTA (O14744 whole entry): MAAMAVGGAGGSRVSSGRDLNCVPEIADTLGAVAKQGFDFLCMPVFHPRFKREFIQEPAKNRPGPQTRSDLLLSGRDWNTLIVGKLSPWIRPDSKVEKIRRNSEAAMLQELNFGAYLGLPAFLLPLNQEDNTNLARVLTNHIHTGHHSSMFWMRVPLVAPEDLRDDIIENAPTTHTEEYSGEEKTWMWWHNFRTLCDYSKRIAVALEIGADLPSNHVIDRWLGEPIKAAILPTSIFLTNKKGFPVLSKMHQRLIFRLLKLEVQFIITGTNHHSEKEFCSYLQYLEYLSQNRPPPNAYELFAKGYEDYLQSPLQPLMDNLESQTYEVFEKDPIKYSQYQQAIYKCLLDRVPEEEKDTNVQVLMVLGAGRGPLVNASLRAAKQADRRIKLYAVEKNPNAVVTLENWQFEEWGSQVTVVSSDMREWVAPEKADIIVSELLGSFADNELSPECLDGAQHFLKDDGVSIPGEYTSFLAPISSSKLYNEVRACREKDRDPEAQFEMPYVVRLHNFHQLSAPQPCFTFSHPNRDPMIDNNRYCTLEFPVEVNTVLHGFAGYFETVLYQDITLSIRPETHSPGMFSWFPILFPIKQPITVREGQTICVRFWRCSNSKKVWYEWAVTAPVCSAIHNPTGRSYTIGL
Sequence of PRMT5-MTA (Q9BQA1 whole entry partner): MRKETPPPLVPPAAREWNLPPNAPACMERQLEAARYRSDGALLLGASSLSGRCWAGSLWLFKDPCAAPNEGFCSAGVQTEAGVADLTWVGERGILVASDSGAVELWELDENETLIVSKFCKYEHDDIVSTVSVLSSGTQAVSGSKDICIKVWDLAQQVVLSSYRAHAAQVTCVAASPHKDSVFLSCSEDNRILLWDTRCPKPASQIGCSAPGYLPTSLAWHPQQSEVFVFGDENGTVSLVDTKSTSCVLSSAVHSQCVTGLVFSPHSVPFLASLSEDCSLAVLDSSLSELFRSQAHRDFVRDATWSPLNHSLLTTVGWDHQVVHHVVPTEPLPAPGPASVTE

With `Cn1ncc2c(N)nc3cc(Cl)c(C(=O)N4CC(CF)CN4c4ncccc4F)cc3c21` (stereo not drawn) [Example 359, (4-amino-7-chloro-1-methyl-1H-pyrazolo[4,3-c]quinolin-8-yl)(4-(fluoromethyl)-2-(3-fluoropyridin-2-yl)pyrazolin-1-yl)methanone], the results for the IC50 in the assay on HCT116-WT cells, in the assay on HCT116 MTAP KO cells and on PRMT5-MTA were 1180 nM, 50 nM and 2.7 nM, respectively. The “Selectivity HCT 116-WT/ HCT116 MTAP KO” value in the assay on HCT116 MTAP KO cells is reported as 23.50.
With `CCc1ncsc1-c1ccc(CN(C(=O)c2ccc3nc(N)c(C)cc3c2)N(C)c2ncccn2)nc1` [Example 241, 2-amino-N-((5-(4-ethylthiazol-5-yl)pyridin-2-yl)methyl)-N',3-dimethyl-N'-(pyrimidin-2-yl)quinoline-6-carbohydrazide], the IC50 came to 676 nM in the assay on HCT116-WT cells, 37 nM in the assay with HCT116 MTAP KO cells and 7.3 nM on PRMT5-MTA (read-out: IC50). In addition, the “Selectivity HCT 116-WT/ HCT116 MTAP KO” value in the assay on HCT116 MTAP KO cells came to 18.27.
With `Cc1cc2cc(C(=O)N(Cc3c(F)cc(Br)cc3F)N(C)c3ncccn3)ccc2nc1N` [Example 278, 2-amino-N-(4-bromo-2,6-difluorobenzyl) -N',3-dimethyl-N'-(pyrimidin-2-yl)quinoline-6-carbohydrazide], the values for the IC50 in the assay on HCT116-WT cells, in the assay with HCT116 MTAP KO cells and at PRMT5-MTA (read-out: IC50) were 395 nM, 28 nM and 1.5 nM, respectively. Moreover, the “Selectivity HCT 116-WT/ HCT116 MTAP KO” value in the assay with HCT116 MTAP KO cells is listed as 14.11.
For `Cc1cc2cc(C(=O)N(Cc3ccc(-c4cnn(C5COC5)c4)cn3)N(C)c3ncccn3)ccc2nc1N` [Example 169, 2-amino-N',3-dimethyl-N-((5-(1-(oxetan-3-yl)-1H-pyrazol-4-yl)pyridin-2-yl)methyl)-N'-(pyrimidin-2-yl)quinoline-6-carbohydrazide], the IC50 came out at 973 nM in the assay on HCT116-WT cells, 39 nM with HCT116 MTAP KO cells and 2.5 nM on PRMT5-MTA (read-out: IC50). The “Selectivity HCT 116-WT/ HCT116 MTAP KO” value with HCT116 MTAP KO cells is recorded as 24.95.
In the same order, the values of `CC1CN(C(=O)c2ccc3nc(N)c4cnn(C)c4c3c2)N(c2ncccc2F)C1` (stereo not drawn) [Example 367, (4-amino-1-methyl-1H-pyrazolo[4,3-c]quinolin-8-yl)(2-(3-fluoropyridin-2-yl)-4-methylpyrazolidin-1-yl)methanone] are 5260 nM, 106 nM, 4.1 nM and 49.62.
Consider `Cc1cc2cc(C(=O)N(Cc3ccc(C(F)(F)F)cn3)N(C)c3ncccn3)ncc2nc1N` [Example 306, 2-amino-N',3-dimethyl-N'-(pyrimidin-2-yl)-N-((5-(trifluoromethyl)pyridin-2-yl)methyl) -1,7-naphthyridine-6-carbohydrazide], for which the results for the IC50 in the assay on HCT116-WT cells, with HCT116 MTAP KO cells and on PRMT5-MTA (read-out: IC50) were 3880 nM, 319 nM and 4.9 nM, respectively. Further, the “Selectivity HCT 116-WT/ HCT116 MTAP KO” value with HCT116 MTAP KO cells is 12.15.
Consider `Cc1cc2cc(C(=O)N(Cc3ccc(C(F)(F)F)cn3)N(C)c3ncc(Br)cn3)ccc2nc1N` [Example 50, 2-amino-N'-(5-bromopyrimidin-2-yl)-N', 3-dimethyl-N-((5-(trifluoromethyl)pyridin-2-yl)methyl)quinoline-6-carbohydrazide], for which the figures for the IC50 with HCT116-WT cells, in the assay on HCT116 MTAP KO cells and on PRMT5-MTA (read-out: IC50) were 3800 nM, 219 nM and 2.1 nM, respectively. Moreover, in the assay with HCT116 MTAP KO cells, the “Selectivity HCT 116-WT/ HCT116 MTAP KO” value worked out at 17.33.
In the same order, the values of `Nc1nc2ccc(C(=O)N(Cc3ccc(C(F)(F)F)cn3)N(c3ncccn3)C3CC3)cc2cc1Br` [Example 270, 2-amino-3-bromo-N'-cyclopropyl-N'-(pyrimidin-2-yl)-N-((5-(trifluoromethyl)pyridin-2-yl)methyl)quinoline-6-carbohydrazide] are 1510 nM, 110 nM, 4.9 nM and 13.74.
As to `Cc1cc2cc(C(=O)N(Cc3ccc(C(F)(F)F)cn3)N(C)c3ccccc3)ccc2nc1N` [Example 75, 2-amino-N',3-dimethyl-N'-phenyl-N-((5-(trifluoromethyl)pyridin-2-yl)methyl)quinoline-6-carbohydrazide], the figures for the IC50 in the assay with HCT116-WT cells, with HCT116 MTAP KO cells and on PRMT5-MTA (read-out: IC50) were 901 nM, 80 nM and 3.1 nM, respectively. Moreover, the “Selectivity HCT 116-WT/ HCT116 MTAP KO” value with HCT116 MTAP KO cells turned out to be 11.26.
In the same order, the values of `CC1CN(C(=O)c2cc3c(cc2F)nc(N)c2cnn(C)c23)N(c2ncccc2F)C1` (single isomer, unassigned) [Example 466] are 660 nM, 13 nM, 4.4 nM and 50.77.
Take `[2H]C([2H])([2H])N(c1nccc2nccnc12)N(Cc1ccc(C(F)(F)F)cn1)C(=O)c1ccc2nc(N)c(C)cc2c1` [Example 62]: the IC50 is 1500 nM in the assay on HCT116-WT cells, 86 nM in the assay with HCT116 MTAP KO cells and 5.1 nM at PRMT5-MTA (read-out: IC50). Besides, the “Selectivity HCT 116-WT/ HCT116 MTAP KO” value in the assay on HCT116 MTAP KO cells is reported as 17.42.
As for `[2H]C([2H])([2H])OC1CN(C(=O)c2cc3c(cc2C)nc(N)c2cnn(C)c23)N(c2ncccc2F)C1` (stereo not drawn) [Example 454, (4-amino-1,7-dimethyl-1H-pyrazolo[4,3-c]quinolin-8-yl)(2-(3-fluoropyridin-2-yl)-4-(methoxy-D3)pyrazolidin-1-yl)methanone], the half-inhibitory concentration (IC50) with HCT116-WT cells was 752 nM; in the assay on HCT116 MTAP KO cells, 36 nM; at PRMT5-MTA (read-out: IC50) it was 5.9 nM. Also, the “Selectivity HCT 116-WT/ HCT116 MTAP KO” value with HCT116 MTAP KO cells is recorded as 20.89.
Regarding `COC1CN(C(=O)c2cc3c(cc2C)nc(N)c2cnn(C)c23)N(c2ncc(F)cc2F)C1` (stereo not drawn) [Example 443, (4-amino-1,7-dimethyl-1H-pyrazolo[4,3-c]quinolin-8-yl)(2-(3,5- ? fluoropyridin-2-yl)-4-methoxypyrazolidin-1-yl)methanone], the IC50 with HCT116-WT cells is 468 nM; with HCT116 MTAP KO cells, 26 nM; at PRMT5-MTA (read-out: IC50), 5 nM. Besides, the “Selectivity HCT 116-WT/ HCT116 MTAP KO” value in the assay with HCT116 MTAP KO cells amounted to 18.00.
Take `Cc1cc2cc(C(=O)N(Cc3ccc(C(F)(F)F)cn3)N(C)c3ncccc3C(F)(F)F)ccc2nc1N` [Example 53, 2-amino-N',3-dimethyl-N'-(3-(trifluoromethyl)pyridin-2-yl)-N-((5-(trifluoromethy 1)pyridin-2-yl)methyl)quinoline-6-carbohydrazide]: the IC50 stood at 2280 nM in the assay with HCT116-WT cells, 90 nM with HCT116 MTAP KO cells and 1.5 nM at PRMT5-MTA (read-out: IC50). Besides, the “Selectivity HCT 116-WT/ HCT116 MTAP KO” value in the assay on HCT116 MTAP KO cells was found to be 25.34.
On the same counts, the results for `Cc1cc2cc(C(=O)N(Cc3ccc(-c4ccccc4)cn3)N(C)c3ncccn3)ccc2nc1N` [Example 202, 2-amino-N',3-dimethyl-N-((5-phenylpyridin-2-yl)methyl)-N'-(pyrimidin-2-yl)quin oline-6-carbohydrazide] are 1060 nM, 74 nM, 2.9 nM and 14.26.
With `Cc1cc2nc(N)c3cnn(C)c3c2cc1C(=O)N1CC(C)(F)CN1c1ncccc1F` (stereo not drawn) [Example 422, (4-amino-1,7-dimethyl-1H-pyrazolo[4,3-c]quinolin-8-yl)(4-fluoro-2-(3-fluoropyridin-2-yl)-4-methylpyrazolidin-1-yl)metha none], the IC50 in the assay with HCT116-WT cells turned out to be 806 nM; in the assay with HCT116 MTAP KO cells, 21 nM; on PRMT5-MTA (read-out: IC50), 9.3 nM. Also, the “Selectivity HCT 116-WT/ HCT116 MTAP KO” value in the assay with HCT116 MTAP KO cells is reported as 38.38.
On to `Cc1cc2cc(C(=O)N(Cc3ccc(C(F)(F)F)cn3)Nc3ncccn3)ccc2nc1N` [Example 59, 2-amino-3-methyl-N'-(pyrimidin-2-yl)-N-((5-(trifluoromethyl)pyridin-2-yl)methyl) quinoline-6-carbohydrazide], for which the IC50 in the assay on HCT116-WT cells is 4220 nM; with HCT116 MTAP KO cells, 257 nM; on PRMT5-MTA (read-out: IC50), 2 nM. Further, the “Selectivity HCT 116-WT/ HCT116 MTAP KO” value with HCT116 MTAP KO cells is listed as 16.43.
Turning to `Cc1cc2cc(C(=O)N(Cc3ccc(C4=CCOC4)cn3)N(C)c3ncccn3)ccc2nc1N` [Example 186, 2-amino-N-((5-(2,5-dihydrofuran-3-yl)pyridin-2-yl)methyl)-N',3-dimethyl-N'-(pyrimidin-2-yl)quinoline-6-carbohydrazide], the figures for the IC50 with HCT116-WT cells, in the assay on HCT116 MTAP KO cells and at PRMT5-MTA (read-out: IC50) were 2830 nM, 122 nM and 5.6 nM, respectively. In addition, in the assay on HCT116 MTAP KO cells, the “Selectivity HCT 116-WT/ HCT116 MTAP KO” value turned out to be 23.20.
With `Cc1cc2nc(N)c3cnn(C)c3c2cc1C(=O)N1CC(C)CN1c1ncc(C2CC2)cc1F` (stereo not drawn) [Example 489], the IC50 in the assay with HCT116-WT cells is 1410 nM; in the assay on HCT116 MTAP KO cells, 54 nM; at PRMT5-MTA it was 4.8 nM. For the same compound, in the assay on HCT116 MTAP KO cells, the “Selectivity HCT 116-WT/ HCT116 MTAP KO” value was 26.04.
On to `Cc1cc2cc(C(=O)N(Cc3ccc(Br)cc3F)N(C)c3nccc4nccnc34)ccc2nc1N` [Example 72, 2-amino-N-(4-bromo-2-fluorobenzyl)-N', 3-dimethyl-N'-(pyrido[3,4-b]pyrazin-5-yl)quinoline-6-carbohydrazide], for which the IC50 turned out to be 1610 nM in the assay with HCT116-WT cells, 92 nM in the assay with HCT116 MTAP KO cells and 2.7 nM at PRMT5-MTA (read-out: IC50). In addition, the “Selectivity HCT 116-WT/ HCT116 MTAP KO” value in the assay with HCT116 MTAP KO cells is on record as 17.50.
On the same counts, the results for `Cc1cc2cc(C(=O)N(Cc3ccc(C4CC4)cn3)N(C)c3ncccn3)ccc2nc1N` [Example 153, 2-amino-N-((5-cyclopropylpyridin-2-yl)methyl)-N',3-dimethyl-N'-(pyrimidin-2-yl)quinoline-6-carbohydrazide] are 1060 nM, 20 nM, 1.6 nM and 52.80.

For the origin of these results see EP4745134A1 (Jiangsu Yahong Meditech Co., Ltd., priority 2023, dated 2025).
